Experimental findings from patent US10160705B2, “Class of HDAC inhibitors expands the renal progenitor cells population and improves the rate of recovery from acute kidney injury” (University of Pittsburgh—Of the Commonwealth System of …, priority 2011, dated 2018) are described below.

The test system of this assay is renal progenitor cells. In words: In situ hybridization for lhx1a expression in 10-somite embryos (renal progenitor cell expansion). Particulars: for responders at 0.2 µM / responders at 0.4 µM / responders at 0.8 µM / responders at 1.5 µM / responders at 3 µM / EC50: Danio rerio; for responders at 0.2 µM: 200 nM, read-out: Expansion of Cells (including repeats* and recounts**) 200 nM; for responders at 0.4 µM: 400 nM, read-out: Expansion of Cells (including repeats* and recounts**) 400 nM; for responders at 0.8 µM: 800 nM, read-out: Expansion of Cells (including repeats* and recounts**) 800 nM; for responders at 1.5 µM: read-out: Expansion of Cells (including repeats* and recounts**) 1.5 μM; for responders at 3 µM: read-out: Expansion of Cells (including repeats* and recounts**) 3 μM; for EC50: first pass EC50 from percent expansion (Excel trendline), average where several experiments. The assay is classed as in vivo. Here is the method:
PTBA was synthesized as described below. Hydroxyurea and aphidicolin were obtained from Sigma-Aldrich.
In situ hybridization and immunocytochemistry: In situ hybridization was performed as previously described with some modifications.142 Hybridization temperature was 65° C. Embryos were blocked in 2% blocking reagent (Roche) with 5% sheep serum in MAB (100 mM maleic acid and 150 mM NaCl [pH 7.5]). Whole-mount immunocytochemistry with 1:25 mouse anti-α6F antibody (Developmental Studies Hybridoma Bank) and 1:100 Cy3 secondary antibody (Jackson ImmunoResearch) was performed as described previously.108 Embryos were embedded in JB-4 for sectioning per the manufacturer's instructions (Polysciences), sectioned at 5 μm, and mounted with Cytoseal 60 (Richard-Allan Scientific).
The remaining PTBA analogs were synthesized.
In situ hybridization for lhx1a was performed as described above. […] Compounds were classified as effective, partially-effective or ineffective based on comparison to the effects of PTBA at a given concentration.
Testing of the compounds is on-going, but for those tested, Table 6 provides first pass EC50s based upon colormetric in situ hybridizations for the Lhx1a mRNA expression levels. After the procedure is run, in situ hybridization is done for the lhx1 mRNA expression and the number of embryos that show an expanded kidney field is manually counted to establish the percent of embryos showing expansion. Then the EC50 is determined by plotting the percent expansion in Excel, graphing the results and using the trendline function to determine the 50 percent point.

[1] abbreviates: percent of embryos with expanded kidney field.
The mark [2] stands for this setting: percent of embryos with expanded kidney field, 1.5 μM.
[3] abbreviates: percent of embryos with expanded kidney field, 3 μM.

Take `COC(=O)CCCCCS(=O)(=O)c1ccc2ccccc2c1` [UPHD-00063, methyl 6-(naphthalen-2-ylsulfonyl)hexanoate]: the EC50 was above 3 µM. In addition, under setting [1], the responders at 0.2 µM is 10%, the responders at 0.4 µM was found to be 5% and the responders at 0.8 µM turned out to be 0%. The responders at 1.5 µM under setting [2] was 0%. The responders at 3 µM under setting [3] worked out at 6%.

The molecule `COC(=O)CCCCCSc1ccccn1` [UPHD-00065, methyl 6-(pyridin-2-ylsulfanyl)hexanoate] gave a 50% effective concentration (EC50) above 3 µM. Besides, under setting [1], the responders at 0.2 µM came to 0%, the responders at 0.4 µM turned out to be 20% and the responders at 0.8 µM was found to be 6%. Further, the responders at 1.5 µM under setting [2] came out at 11%. For the same molecule, under setting [3], the responders at 3 µM was 29%.

`Nc1ccccc1NC(=O)CCCCCS(=O)(=O)c1ccc2ccccc2c1` [UPHD-00066, N-(2-aminophenyl)-6-(naphthalene-2-sulfonyl)hexanamide] yielded an EC50 above 3 µM. In addition, under setting [1], the responders at 0.2 µM came out at 0%, the responders at 0.4 µM was 0% and the responders at 0.8 µM is 5%. In addition, the responders at 1.5 µM under setting [2] is 11%. For the same molecule, the responders at 3 µM under setting [3] was 10%.

The molecule `O=C(NO)c1ccc(CCSc2ccc(F)cc2)cc1` [UPHD-00067, 4-{2[(4-fluoro-phenyl)sulfanyl]ethyl}-N-hydroxybenzamide] came in with an EC50 of 0.8 µM. In addition, the responders at 0.2 µM under setting [1] came to 17%. Further, the responders at 3 µM under setting [3] was 20%.

`O=C(CCCCCS(=O)(=O)c1ccc2ccccc2c1)NO` [UPHD-00069, N-hydroxy-6-(naphthalene-2-sulfonyl)hexanamide] returned an EC50 above 3 µM. Moreover, under setting [1], the responders at 0.2 µM was determined as 0%, the responders at 0.4 µM worked out at 0% and the responders at 0.8 µM is 0%. In addition, under setting [2], the responders at 1.5 µM turned out to be 0%. Further, the responders at 3 µM under setting [3] stood at 0%.

`O=C(CCCCCSc1nc2ccccc2s1)NO` [UPHD-00070, 6-(1,3-benzothiazol-2-ylsulfanyl)-N-hydroxyhexanamide] had an EC50 above 3 µM. Under setting [1], the responders at 0.2 µM was determined as 0%, the responders at 0.4 µM was 0% and the responders at 0.8 µM was 0%. For the same molecule, under setting [2], the responders at 1.5 µM came out at 0%. Moreover, the responders at 3 µM under setting [3] was determined as 0%.

Consider `Nc1ccccc1NC(=O)CCCCCSc1nc2ccccc2s1` [UPHD-00071, N-(2-aminophenyl)-6-(1,3-benzothiazol-2-ylsulfanyl)hexanamide], for which, under setting [1], the responders at 0.2 µM is 12%, the responders at 0.4 µM was 42% and the responders at 0.8 µM was determined as 74%. Besides, the responders at 1.5 µM under setting [2] stood at 26%. In addition, under setting [3], the responders at 3 µM came out at 70%.

Molecule `Nc1ccccc1NC(=O)CCCCCSc1ncccn1` [UPHD-00072, N-(2-aminophenyl)-6-(pyrimidin-2-ylsulfanyl)hexanamide] yielded an EC50 above 3 µM. Also, under setting [1], the responders at 0.2 µM turned out to be 0%, the responders at 0.4 µM came to 0% and the responders at 0.8 µM was determined as 5%. Besides, the responders at 1.5 µM under setting [2] is 5%. Further, the responders at 3 µM under setting [3] is 5%.

In turn, `Nc1ccccc1NC(=O)CCCCCSc1ccccn1` [UPHD-00073, N-(2-aminophenyl)-6-(pyridin-2-ylsulfanyl)hexanamide] displayed an EC50 above 3 µM. Under setting [1], the responders at 0.2 µM worked out at 5%, the responders at 0.4 µM came to 10% and the responders at 0.8 µM was 0%. The responders at 1.5 µM under setting [2] is 20%. Moreover, under setting [3], the responders at 3 µM came to 30%.

`O=C(CCCCCSc1ccc(F)cc1)Nc1ccccc1O` [UPHD-00077, 6-[(4-fluoro-phenyl)sulfanyl]-N-(2-hydroxyphenyl)hexanamide] showed an EC50 of 0.23 µM. In addition, under setting [1], the responders at 0.2 µM was found to be 40%, the responders at 0.4 µM came out at 100% and the responders at 0.8 µM was determined as 100%. The “Expansion of Cells (including repeats* and recounts**) 1.5 μM” value under setting [2] is “ND (All Dead)”. Further, under setting [3], the “Expansion of Cells (including repeats* and recounts**) 3 μM” value is listed as “ND (All Dead)”.

As to `Cn1c(SCCCCCC(=O)Nc2ccccc2N)nc2ccccc21` [UPHD-00081, N-(2-aminophenyl)-6-[(1-methyl-1H-1,3-benzodiazol-2-yl)sulfanyl]hexanamide], the EC50 was above 3 µM. Moreover, under setting [1], the responders at 0.2 µM turned out to be 0%, the responders at 0.4 µM was 10% and the responders at 0.8 µM is 10%. Further, under setting [2], the responders at 1.5 µM was 20%. Also, the responders at 3 µM under setting [3] came out at 32%.

In turn, `COC(=O)CCCCCSc1ccc(OC)cc1` [UPHD-00090, methyl 6-[(4-methoxy-phenyl)sulfanyl]hexanoate] showed an EC50 of 2.34 µM. Moreover, under setting [1], the responders at 0.2 µM turned out to be 0%, the responders at 0.4 µM came to 12% and the responders at 0.8 µM came to 25%. The responders at 1.5 µM under setting [2] is 26%. In addition, under setting [3], the responders at 3 µM is 65%.
